Numbered stars: 1 amine (or outer) side, 2 acyl side, 3 side chain; on linkers, the order of the positions; unused ones are H or OH. Bridge positions count the residues as written; N and C are the ends. Square brackets hold non-standard residues; d marks the D form. Ends that are not written are not given here. I, II: the chains in the order shown. ξ: configuration not given here. ξY = NC(Cc1ccc(O)cc1)C(=O)O; ξR = N=C(N)NCCCC(N)C(=O)O; Dap = NC[C@H](N)C(=O)O; X1 = O=C(C[*:1])[*:2]; ξK = NCCCCC(N)C(=O)O; ξP = O=C(O)C1CCCN1; ξC = NC(CS)C(=O)O
What was measured:
[1] = test system: hMSC-Human Mesenchymal Stem Cells; test: Mesenchymal stem cell (MSC) proliferation-promoting effect; type: cell-based; conditions: 0.001 to 3 nmol/L, bFGF-free custom culture medium; viable cells normalized to 1 nmol/L bFGF = 100, negative control = 0
Experimental: The mesenchymal stem cell (MSC) proliferation-promoting effect of the cyclic peptide complex was evaluated.
The MSC was activated and subcultured according to the recommended protocol of FUJIFILM Irvine Scientific, Inc. using hMSC-Human Mesenchymal Stem Cells (Lonza, PT-2501) and PRIME-XV MSC Expansion XSFM (FUJIFILM Irvine Scientific, Inc., 91149) as a culture medium. MSCs that had been subcultured 1 to 4 times were used for the evaluation.
The evaluation of the proliferation-promoting effect of MSC was performed by the following method. First, a culture medium (hereinafter, referred to as a custom culture medium) in which bFGF was removed from PRIME-XV MSC Expansion XSFM (FUJIFILM Irvine Scientific, Inc., 91149) was prepared. Next, Prime-XV Human Fibronectin (FUJIFILM Irvine Scientific, Inc., 31002) was dissolved in PBS (Fujifilm Wako Pure Chemical Corporation, 164-23551), 2 μg/cm^2 of the solution was added to a 96-well plate used for evaluation, and the 96-well plate was allowed to stand at room temperature for 3 hours to coat the 96-well plate with fibronectin. […] The number of viable cells was calculated from the imaging data and normalized by setting the number of viable cells in the well to which 1 nmol/L bFGF was added to 100, and setting the number of viable cells in the negative control well to 0.

[2] = test system: hMSC-Human Mesenchymal Stem Cells; test: Effect of maintaining MSC undifferentiated potency (gene expression); type: cell-based; conditions: cyclic peptide complex 3 nmol/L or bFGF 1 nmol/L, normalized to 1 nmol/L bFGF = 1, bFGF compared with negative control
Experimental: The effect of maintaining mesenchymal stem cell (MSC) undifferentiated potency of the cyclic peptide complex was evaluated.
MSC was prepared in the same manner as in Example 7.
The evaluation of the effect of maintaining the MSC undifferentiated potency was performed by the following method. First, a culture medium (hereinafter, referred to as a custom culture medium) in which bFGF was removed from PRIME-XV MSC Expansion XSFM (FUJIFILM Irvine Scientific, Inc., 91149) was prepared. Next, Prime-XV Human Fibronectin (FUJIFILM Irvine Scientific, Inc., 31002) was dissolved in PBS (Fujifilm Wako Pure Chemical Corporation, 164-23551), 2 μg/cm^2 of the solution was added to a 12-well plate used for proliferation, and the 12-well plate was allowed to stand at room temperature for 3 hours to coat the 12-well plate with fibronectin. Thereafter, the MSCs subjected to the subculture were peeled using Tryple Express (Thermo, 12604-013), washed once with a custom culture medium, suspended in a custom culture medium in which a cyclic peptide complex or bFGF (R&D Systems, 3718-GMP) was diluted to final concentrations of 3 nmol/L and 1 nmol/L, and seeded on a 12-well plate coated with fibronectin. In this case, conditions in which the cyclic peptide complex and bFGF were not added as a negative control were prepared. After culturing at 37° C. (5% CO2) for 2 nights, the culture medium was replaced by removing the supernatant of the culture medium and adding the same amount of a culture medium prepared to have the same composition as the removed culture medium. After further culturing at 37° C. (5% CO2) for 2 nights, RNA was extracted using an RNeasy Plus Mini Kit (Qiagen, 74136) according to the manufacturer's protocol. […] The expression level of each gene was normalized by setting the expression level of the well to which 1 nmol/L bFGF was added to 1.

bovine myoblasts = test: Bovine cell (myoblast) proliferation-promoting effect; type: cell-based, Japanese Black cattle; conditions: 0.03 to 10 nmol/L, 4 days; viable cells normalized to 30 ng/mL bFGF = 100, negative control = 0
Experimental: The bovine cells (myoblasts) proliferation-promoting effect of the cyclic peptide complex was evaluated.
Bovine myoblasts were separated from bovine muscle tissue by the following method. First, muscle tissue of Japanese Black cattle was finely chopped in HBSS (−) (phenol red-free) (FUJIFILM Wako Pure Chemical Corporation, 085-09355), and then pronase from Streptomyces griseus (Sigma-Aldrich, 10165921001) was added thereto to a final concentration of 1 mg/mL, and the mixture was allowed to stand at 37° C. for 1 hour. After allowing to stand, HBSS containing 10% FBS was added thereto, and the cells were acquired by centrifugation. The acquired cells were suspended in D-MEM (high glucose) (containing L-glutamine and phenol red) (FUJIFILM Wako Pure Chemical Corporation, 044-29765) containing 10% final concentration of bovine serum and 30 ng/mL bFGF. Suspended cells were cultured in a culture flask coated with an iMatrix-511 solution (FUJIFILM Wako Pure Chemical Corporation, 381-07363) at 0.55 μg/cm^2. […]
The evaluation of the proliferation-promoting effect on bovine myoblasts was performed by the following method. […] The number of viable cells was calculated from the imaging data and normalized by setting the number of viable cells in the well to which 30 ng/mL bFGF was added to 100, and setting the number of viable cells in the negative control well to 0.

I: H[ξC]SYERLEFHGHEAPFRV[ξK]V[Dap]-NH2 / II: HCS[ξY]E[ξR]LQFHGHEA[ξP]FRVK[dV] (linker I:2-I:19, II:2-II:19 via X1; amide I:21-II:C) [SEQ ID NO: 393, (H-(C)-SYERLQFHGHEAPFRV-(K(acetyl))-V)2-Dap]
MSC proliferation action [1]: the same degree of MSC proliferation action as bFGF
expression level of Sox2 [2]: the same degree of a gene expression level as bFGF
bovine myoblast proliferation action (bovine myoblasts): about 80%
